This note sets out measurements from PubChem BioAssay (NCI).

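Protocol summary: plate cells (96-well), add compound at 5 concentrations, incubate 48 h, interpolate endpoints linearly. The concentration for 50% growth inhibition is given as GI50. Definition used: TGI = concentration required for complete inhibition of growth.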

The first assay deals with OVCAR-3 ovarian. Put plainly: inhibition of tumour cell growth, NCI panel, 48 h.
For the compound `O=c1cc2oc3cc(O)c(O)cc3c(-c3ccccc3O)c-2cc1O`, the GI50 was 9.41 µM and the TGI was above 100 µM.
As to `CCCCCCC[CH2][Sn]1([CH2]CCCCCCC)[O]C(=O)c2cccnc2[S]1`, the GI50 was above 100 µM and the TGI was above 100 µM.
`COc1ccc(/C(=N\NC(=O)C(N)=O)C(c2ccc(OC)cc2)C2(O)C(=O)Nc3c(Cl)cccc32)cc1` (configuration not stated) came in with a TGI above 100 µM.
On the same count and under the same terms, the same measure for `Cc1ccc(S(=O)(=O)N/N=C/c2oc(-c3ccncc3)c(-c3ccncc3)c2[N+](=O)[O-])cc1`: above 100 µM.
Consider `CCc1cccc(C)c1NC(=O)C(=O)Cc1nc2ccccc2o1`, for which the TGI was above 100 µM.
For the compound `O=C1c2ccccc2C2(O)c3cc4ccccc4cc3OC12O` (configuration not stated), the TGI is above 100 µM.
Consider `CN(C)c1c([O-])c(=[N+](C)C)c1=O`, for which the TGI is above 100 µM.

The test system of the next assay is U251 CNS. Put plainly: inhibition of tumour cell growth, NCI panel, 48 h.
In the case of `O=c1n(-c2ccccc2)c(=O)n2n1C1C=CC2C2C(C1)C2(Cl)Cl` (configuration not stated), the TGI is above 100 µM.
Turning to `O=c1[nH]c(=O)n(C2CC(O)C(CO)O2)cc1CO` (configuration not stated), the GI50 is 2.95 µM and the TGI was above 100 µM.
The compound `Cc1c(Cl)cccc1N1C(=O)C(Cl)=C(Cl)C1=O` yielded a TGI above 100 µM.
In the case of `COc1cccc(/C=N/[N-]C(=O)c2ccncc2)c1[O-].[Cu+2].[OH3+]`, the GI50 is 20.5 µM and the TGI was above 100 µM.
`COc1ccc(C(O)c2nccn2C)c(OC)c1` (configuration not stated) came in with a TGI above 100 µM.
On to `CS(=O)(=O)CCCn1c(=O)c(Oc2ccc(F)cc2F)cc2cnc(NC3CCOCC3)nc21`, for which the GI50 was above 25 µM and the TGI is above 25 µM.
In turn, `CCc1c(OC(C)=O)c2c(NC3OC(COC(C)=O)C(OC(C)=O)C(OC(C)=O)C3OC(C)=O)nc(OC)nc2oc1=O` (configuration not stated) registered a TGI above 100 µM.
Turning to `Cc1cn2c(/C=C3\C(=O)Nc4ccc(O)cc43)c(-c3ccc(Cl)cc3)nc2s1`, the GI50 was 14.3 µM and the TGI was 28.9 µM.
The compound `O=[N+]([O-])c1ccc(-n2nnc(C3=NCCN3)c2-c2ccc(Cl)cc2)cc1` had a TGI above 100 µM.
`CCOc1ccc(N2C(=O)/C(=C/c3ccc(N(CCC#N)CCC#N)cc3)N=C2c2cc([N+](=O)[O-])ccc2Cl)cc1` yielded a TGI above 100 µM.
`COc1ccc(-c2cc(-c3ccccc3)c(C#N)c(=O)n2C2OC(CO)C(O)C(O)C2O)cc1` (configuration not stated) gave a TGI above 100 µM.
The same measure, in the same setting: the same measure for `CCOC(=O)C1(c2ccccc2)CCC(=O)CC1`: above 100 µM.
Consider `CCCCCCNC(=O)c1nc(-c2ccccc2)oc1Cc1ccc(OP(=O)(O)O)cc1`, for which the GI50 was 15.7 µM and the TGI was found to be 29.9 µM.
For the compound `CCCn1c(N)c(C(=O)N/N=C(/C)c2cc3cccc(OC)c3o2)sc1=S`, the GI50 is 18.3 µM and the TGI amounted to 55.5 µM.
`O=C(O)CSc1n[nH]c(-c2ccccc2)n1` returned a TGI above 100 µM.
Take `O=c1cc2oc3cc(O)c(O)cc3c(-c3ccccc3O)c-2cc1O`: the GI50 was 4.6 µM and the TGI was above 100 µM.
Consider `CCCCCCC[CH2][Sn]1([CH2]CCCCCCC)[O]C(=O)c2cccnc2[S]1`, for which the GI50 was above 100 µM and the TGI was above 100 µM.
Compound `COc1ccc(/C(=N\NC(=O)C(N)=O)C(c2ccc(OC)cc2)C2(O)C(=O)Nc3c(Cl)cccc32)cc1` (configuration not stated) gave a TGI above 100 µM.
With `Cc1ccc(S(=O)(=O)N/N=C/c2oc(-c3ccncc3)c(-c3ccncc3)c2[N+](=O)[O-])cc1`, the TGI is above 100 µM.
With `CCc1cccc(C)c1NC(=O)C(=O)Cc1nc2ccccc2o1`, the TGI was above 100 µM.
Consider `O=C1c2ccccc2C2(O)c3cc4ccccc4cc3OC12O` (configuration not stated), for which the TGI is above 100 µM.
Compound `CN(C)c1c([O-])c(=[N+](C)C)c1=O` returned a TGI above 100 µM.

A further assay has as its system SF-295 CNS. Put plainly: inhibition of tumour cell growth, NCI panel, 48 h.
`O=c1n(-c2ccccc2)c(=O)n2n1C1C=CC2C2C(C1)C2(Cl)Cl` (configuration not stated) had a TGI above 100 µM.
For the compound `O=c1[nH]c(=O)n(C2CC(O)C(CO)O2)cc1CO` (configuration not stated), the GI50 is above 100 µM and the TGI is above 100 µM.
`Cc1c(Cl)cccc1N1C(=O)C(Cl)=C(Cl)C1=O` yielded a TGI above 100 µM.
Regarding `COc1cccc(/C=N/[N-]C(=O)c2ccncc2)c1[O-].[Cu+2].[OH3+]`, the GI50 is above 100 µM and the TGI is above 100 µM.
`COc1ccc(C(O)c2nccn2C)c(OC)c1` (configuration not stated) yielded a TGI above 100 µM.
For `CS(=O)(=O)CCCn1c(=O)c(Oc2ccc(F)cc2F)cc2cnc(NC3CCOCC3)nc21`, the GI50 is above 25 µM and the TGI was above 25 µM.
With `CCc1c(OC(C)=O)c2c(NC3OC(COC(C)=O)C(OC(C)=O)C(OC(C)=O)C3OC(C)=O)nc(OC)nc2oc1=O` (configuration not stated), the TGI was above 100 µM.
In the case of `Cc1cn2c(/C=C3\C(=O)Nc4ccc(O)cc43)c(-c3ccc(Cl)cc3)nc2s1`, the GI50 is 15.2 µM and the TGI came out at 41.4 µM.
In turn, `O=[N+]([O-])c1ccc(-n2nnc(C3=NCCN3)c2-c2ccc(Cl)cc2)cc1` showed a TGI above 100 µM.
With `CCOc1ccc(N2C(=O)/C(=C/c3ccc(N(CCC#N)CCC#N)cc3)N=C2c2cc([N+](=O)[O-])ccc2Cl)cc1`, the TGI was determined as 83.7 µM.
In turn, `COc1ccc(-c2cc(-c3ccccc3)c(C#N)c(=O)n2C2OC(CO)C(O)C(O)C2O)cc1` (configuration not stated) came in with a TGI above 100 µM.
For the compound `CCOC(=O)C1(c2ccccc2)CCC(=O)CC1`, the TGI is above 100 µM.
For the compound `CCCn1c(N)c(C(=O)N/N=C(/C)c2cc3cccc(OC)c3o2)sc1=S`, the GI50 is 0.01 µM and the TGI came out at 18.1 µM.
Consider `O=C(O)CSc1n[nH]c(-c2ccccc2)n1`, for which the TGI is above 100 µM.
Take `O=c1cc2oc3cc(O)c(O)cc3c(-c3ccccc3O)c-2cc1O`: the GI50 was 19.6 µM and the TGI is 61.3 µM.
For `CCCCCCC[CH2][Sn]1([CH2]CCCCCCC)[O]C(=O)c2cccnc2[S]1`, the GI50 is above 100 µM and the TGI is above 100 µM.
Compound `COc1ccc(/C(=N\NC(=O)C(N)=O)C(c2ccc(OC)cc2)C2(O)C(=O)Nc3c(Cl)cccc32)cc1` (configuration not stated) returned a TGI above 100 µM.
The compound `Cc1ccc(S(=O)(=O)N/N=C/c2oc(-c3ccncc3)c(-c3ccncc3)c2[N+](=O)[O-])cc1` came in with a TGI above 100 µM.
The compound `CCc1cccc(C)c1NC(=O)C(=O)Cc1nc2ccccc2o1` registered a TGI above 100 µM.
As to `O=C1c2ccccc2C2(O)c3cc4ccccc4cc3OC12O` (configuration not stated), the TGI was above 100 µM.
With `CN(C)c1c([O-])c(=[N+](C)C)c1=O`, the TGI was above 100 µM.
